{
  "source": "patent US20230077362A1",
  "about": "(CORTEVA AGRISCIENCE LLC, priority 2019, published 2023)",
  "key": {"[1]": {"test_system": "Beet Armyworm (Spodoptera exigua) (\"BAW\"), second instar larvae", "assay": "Bioassay on beet armyworm (BAW), 128-well diet tray assay", "assay_type": "in vivo", "settings": "for pest or weed control at 50 µg/cm2: Spodoptera exigua; for BAW rating: Table ABC, species BAW, C = not tested, D = no activity noticed", "how_it_was_run": "(§1)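 Covered trays were held at 25° C. under a 14:10 light-dark cycle for five to seven days. Percent mortality was then scored in each well, and activity across eight wells was averaged.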"}, "[2]": {"test_system": "Cabbage Looper (Trichoplusia ni) (\"CL\"), second instar larvae", "assay": "Bioassay on cabbage looper (CL), 128-well diet tray assay", "assay_type": "in vivo", "settings": "for pest or weed control at 50 µg/cm2: Trichoplusia ni; for CL rating: Table ABC, species CL, C = not tested, D = no activity noticed", "how_it_was_run": "as §1"}, "[3]": {"settings": "read-out: BAW (Biological Results, rating)"}, "[4]": {"settings": "read-out: CL (Biological Results, rating)"}},
  "note": "Where two headings read alike, the source gives them in different places.",
  "data": [
    {"compound": "Cc1ccc(C(C)C)c(N2C(=O)CS/C2=N\\C(=O)Nc2ccc(-c3ncn(-c4ccc(C(F)(F)F)cn4)n3)cc2)c1", "note": "[Compound J337, (Z)-1-(3-(2-Isopropyl-5-methylphenyl)-4-oxothiazolidin-2-ylidene)-3-(4-(1-(5-(trifluoromethyl)pyridin-2-yl)-1H-1,2,4-triazol-3-yl)phenyl)urea]", "values": [
      {"measurement": "pest or weed control at 50 µg/cm2", "setting": "[1]; [3]", "result": "50 to 100", "unit": "%"},
      {"measurement": "pest or weed control at 50 µg/cm2", "setting": "[2]; [4]", "result": "50 to 100", "unit": "%"}
    ]},
    {"compound": "COC(C)c1ccc(C)cc1N1C(=O)CS/C1=N\\C(=O)Nc1ccc(-c2cn(-c3ccc(C(F)(F)F)cn3)cn2)cc1", "note": "(centres unmarked) [Compound J518, (Z)-1-(3-(2-(1-Methoxyethyl)-5-methylphenyl)-4-oxothiazolidin-2-ylidene)-3-(4-(1-(5-(trifluoromethyl)pyridin-2-yl)-1H-imidazol-4-yl)phenyl)urea]", "values": [
      {"measurement": "pest or weed control at 50 µg/cm2", "setting": "[1]; read-out: BAW rating", "result": "50 to 100", "unit": "%"},
      {"measurement": "pest or weed control at 50 µg/cm2", "setting": "[2]; read-out: CL rating", "result": "50 to 100", "unit": "%"}
    ]},
    {"compound": "Cc1ccc(COCC(F)(F)F)c(N2C(=O)CS/C2=N\\C(=O)Nc2ccc(-c3cn(-c4ccc(S(F)(F)(F)(F)F)cc4)cn3)cc2C)c1", "note": "[Compound J616, (Z)-1-(3-(5-Methyl-2-((2,2,2-trifluoroethoxy)methyl)phenyl)-4-oxothiazolidin-2-ylidene)-3-(2-methyl-4-(1-(4-(pentafluoro-λ^6-sulfaneyl)phenyl)-1H-imidazol-4-yl)phenyl)urea]", "values": [
      {"measurement": "pest or weed control at 50 µg/cm2", "setting": "[1]; read-out: BAW rating", "result": "50 to 100", "unit": "%"},
      {"measurement": "pest or weed control at 50 µg/cm2", "setting": "[2]; read-out: CL rating", "result": "50 to 100", "unit": "%"}
    ]},
    {"compound": "Cc1ccc(COCC(Cl)Cl)c(N2C(=O)CS/C2=N\\C(=O)Nc2ccc(-c3ncn(-c4ccc(S(F)(F)(F)(F)F)cc4)n3)cc2C)c1", "note": "[Compound J556]", "values": [
      {"measurement": "BAW rating", "setting": "[1]", "result": "A (50-100)"},
      {"measurement": "CL rating", "setting": "[2]", "result": "A (50-100)"}
    ]},
    {"compound": "CCOCc1ccc(C)cc1N1C(=O)CS/C1=N\\C(=O)Nc1ccc(-c2ncn(-c3cccc(OC(F)(F)F)c3)n2)cc1C", "note": "[Compound J726]", "values": [
      {"measurement": "BAW rating", "setting": "[1]", "result": "A (50-100)"},
      {"measurement": "CL rating", "setting": "[2]", "result": "A (50-100)"}
    ]},
    {"compound": "CC(C)c1ccc(N(C)C)cc1N1C(=O)CS/C1=N\\C(=O)Nc1ccc(-c2cn(-c3ccc(OC(F)(F)F)cc3)cn2)cc1", "note": "[Compound J529, (Z)-1-(3-(5-(Dimethylamino)-2-isopropylphenyl)-4-oxothiazolidin-2-ylidene)-3-(4-(1-(4-(trifluoromethoxy)phenyl)-1H-imidazol-4-yl)phenyl)urea]", "values": [
      {"measurement": "pest or weed control at 50 µg/cm2", "setting": "[1]; read-out: BAW rating", "result": "50 to 100", "unit": "%"},
      {"measurement": "pest or weed control at 50 µg/cm2", "setting": "[2]; read-out: CL rating", "result": "50 to 100", "unit": "%"}
    ]},
    {"compound": "COC(C)c1ccc(C)cc1N1C(=O)CS/C1=N\\C(=O)Nc1ccc(-c2cn(-c3ccc(S(F)(F)(F)(F)F)cc3)cn2)cc1C", "note": "(centres unmarked) [Compound J614, (Z)-1-(3-(2-(1-Methoxyethyl)-5-methylphenyl)-4-oxothiazolidin-2-ylidene)-3-(2-methyl-4-(1-(4-(pentafluoro-λ^6-sulfaneyl)phenyl)-1H-imidazol-4-yl)phenyl)urea]", "values": [
      {"measurement": "pest or weed control at 50 µg/cm2", "setting": "[1]; read-out: BAW rating", "result": "50 to 100", "unit": "%"},
      {"measurement": "pest or weed control at 50 µg/cm2", "setting": "[2]; read-out: CL rating", "result": "50 to 100", "unit": "%"}
    ]},
    {"compound": "COC(C)c1ccc(C)cc1N1C(=O)CS/C1=N\\C(=O)Nc1ccc(-c2cn(-c3ccc(C(F)(F)F)cn3)cn2)cc1C", "note": "(centres unmarked) [Compound J508, (Z)-1-(3-(2-(1-Methoxyethyl)-5-methylphenyl)-4-oxothiazolidin-2-ylidene)-3-(2-methyl-4-(1-(5-(trifluoromethyl)pyridin-2-yl)-1H-imidazol-4-yl)phenyl)urea]", "values": [
      {"measurement": "pest or weed control at 50 µg/cm2", "setting": "[1]; read-out: BAW rating", "result": "50 to 100", "unit": "%"},
      {"measurement": "pest or weed control at 50 µg/cm2", "setting": "[2]; read-out: CL rating", "result": "50 to 100", "unit": "%"}
    ]},
    {"compound": "CCOC(C)c1ccc(C)cc1N1C(=O)CS/C1=N\\C(=O)Nc1ccc(-c2ncn(-c3ccc(C(F)(F)F)cn3)n2)cc1F", "note": "(centres unmarked) [Compound J378]", "values": [
      {"measurement": "BAW rating", "setting": "[1]", "result": "A (50-100)"},
      {"measurement": "CL rating", "setting": "[2]", "result": "A (50-100)"}
    ]},
    {"compound": "COC(C)c1ccc(C)cc1N1C(=O)CS/C1=N\\C(=O)Nc1c(C)cc(-c2ncn(-c3ccc(OC(F)(F)F)cc3)n2)cc1C", "note": "(centres unmarked) [Compound J97, (Z)-1-(2,6-Dimethyl-4-(1-(4-(trifluoromethoxy)phenyl)-1H-1,2,4-triazol-3-yl)phenyl)-3-(3-(2-(1-methoxyethyl)-5-methylphenyl)-4-oxothiazolidin-2-ylidene)urea]", "values": [
      {"measurement": "pest or weed control at 50 µg/cm2", "setting": "[1]; [3]", "result": "50 to 100", "unit": "%"},
      {"measurement": "pest or weed control at 50 µg/cm2", "setting": "[2]; [4]", "result": "50 to 100", "unit": "%"}
    ]},
    {"compound": "CN(C)c1ccc(OCCC(F)(F)F)c(N2C(=O)CS/C2=N\\C(=O)Nc2ccc(-c3ncn(-c4ccc(OC(F)(F)F)cc4)n3)cc2)c1", "note": "[Compound J321, (Z)-1-(3-(5-(Dimethylamino)-2-(3,3,3-trifluoropropoxy)phenyl)-4-oxothiazolidin-2-ylidene)-3-(4-(1-(4-(trifluoromethoxy)phenyl)-1H-1,2,4-triazol-3-yl)phenyl)urea]", "values": [
      {"measurement": "pest or weed control at 50 µg/cm2", "setting": "[1]; [3]", "result": "50 to 100", "unit": "%"},
      {"measurement": "pest or weed control at 50 µg/cm2", "setting": "[2]; [4]", "result": "50 to 100", "unit": "%"}
    ]},
    {"compound": "CCCc1ccc(C)cc1N1C(=O)CS/C1=N\\C(=O)Nc1ccc(-c2ncn(-c3ccc(N(C(=O)OC)C(F)(F)F)cc3)n2)cc1C", "note": "[Compound J784]", "values": [
      {"measurement": "BAW rating", "setting": "[1]", "result": "A (50-100)"},
      {"measurement": "CL rating", "setting": "[2]", "result": "A (50-100)"}
    ]},
    {"compound": "CC(C)c1ccc(N(C)C)cc1N1C(=O)CS/C1=N\\C(=O)Nc1ccc(-c2ncn(-c3ccc(S(F)(F)(F)(F)F)cc3)n2)cc1F", "note": "[Compound J450]", "values": [
      {"measurement": "BAW rating", "setting": "[1]", "result": "A (50-100)"},
      {"measurement": "CL rating", "setting": "[2]", "result": "A (50-100)"}
    ]},
    {"compound": "O=C(/N=C1\\SCC(=O)N1c1cc(F)ccc1COCC(F)(F)F)Nc1ccc(-n2cnc(-c3ccc(OC(F)(F)F)cc3)n2)cc1F", "note": "[Compound J690, (Z)-1-(3-(5-Fluoro-2-((2,2,2-trifluoroethoxy)methyl)phenyl)-4-oxothiazolidin-2-ylidene)-3-(2-fluoro-4-(3-(4-(trifluoromethoxy)phenyl)-1H-1,2,4-triazol-1-yl)phenyl)urea]", "values": [
      {"measurement": "pest or weed control at 50 µg/cm2", "setting": "[1]; read-out: BAW rating", "result": "50 to 100", "unit": "%"},
      {"measurement": "pest or weed control at 50 µg/cm2", "setting": "[2]; read-out: CL rating", "result": "50 to 100", "unit": "%"}
    ]},
    {"compound": "CCOCc1ccc(C)cc1N1C(=O)CS/C1=N\\C(=O)Nc1ccc(-c2ncn(-c3ccc(OCC(F)(F)F)cc3)n2)cc1F", "note": "[Compound J766, (Z)-1-(3-(2-(Ethoxymethyl)-5-methylphenyl)-4-oxothiazolidin-2-ylidene)-3-(2-fluoro-4-(1-(4-(2,2,2-trifluoroethoxy)phenyl)-1H-1,2,4-triazol-3-yl)phenyl)urea]", "values": [
      {"measurement": "pest or weed control at 50 µg/cm2", "setting": "[1]; read-out: BAW rating", "result": "50 to 100", "unit": "%"},
      {"measurement": "pest or weed control at 50 µg/cm2", "setting": "[2]; read-out: CL rating", "result": "50 to 100", "unit": "%"}
    ]},
    {"compound": "Cc1ccc(COCCC(F)(F)F)c(N2C(=O)CS/C2=N\\C(=O)Nc2ccc(-c3ncn(-c4ccc(OC(F)(F)F)cc4)n3)cc2F)c1", "note": "[Compound J543]", "values": [
      {"measurement": "BAW rating", "setting": "[1]", "result": "A (50-100)"},
      {"measurement": "CL rating", "setting": "[2]", "result": "A (50-100)"}
    ]},
    {"compound": "COC(C)c1ccc(C)cc1N1C(=O)CS/C1=N\\C(=O)Nc1ccc(-c2ncn(-c3ccc(C(F)(F)F)cc3)n2)cc1F", "note": "(centres unmarked) [Compound J62, (Z)-1-(2-Fluoro-4-(1-(4-(trifluoromethyl)phenyl)-1H-1,2,4-triazol-3-yl)phenyl)-3-(3-(2-(1-methoxyethyl)-5-methylphenyl)-4-oxothiazolidin-2-ylidene)urea]", "values": [
      {"measurement": "pest or weed control at 50 µg/cm2", "setting": "[1]; [3]", "result": "50 to 100", "unit": "%"},
      {"measurement": "pest or weed control at 50 µg/cm2", "setting": "[2]; [4]", "result": "50 to 100", "unit": "%"}
    ]},
    {"compound": "COCc1ccc(N(C)C)cc1N1C(=O)CS/C1=N\\C(=O)Nc1ccc(-c2nnc(-c3ccc(OC(F)(F)F)cc3)o2)cc1F", "note": "[Compound J612, (Z)-1-(3-(5-(Dimethylamino)-2-(methoxymethyl)phenyl)-4-oxothiazolidin-2-ylidene)-3-(2-fluoro-4-(5-(4-(trifluoromethoxy)phenyl)-1,3,4-oxadiazol-2-yl)phenyl)urea]", "values": [
      {"measurement": "pest or weed control at 50 µg/cm2", "setting": "[1]; read-out: BAW rating", "result": "50 to 100", "unit": "%"},
      {"measurement": "pest or weed control at 50 µg/cm2", "setting": "[2]; read-out: CL rating", "result": "50 to 100", "unit": "%"}
    ]},
    {"compound": "CC(C)c1ccc(N(C)C)cc1N1C(=O)CS/C1=N\\C(=O)Nc1ccc(-c2ncn(-c3ccc(C(F)(F)F)cn3)n2)cc1", "note": "[Compound J339]", "values": [
      {"measurement": "BAW (Biological Results, rating)", "setting": "[1]; Beet Armyworm (Spodoptera exigua), C = Not Tested", "result": "A (50-100)"},
      {"measurement": "CL (Biological Results, rating)", "setting": "[2]; Cabbage Looper (Trichoplusia ni), C = Not Tested", "result": "A (50-100)"}
    ]}
  ]
}
